Measured values as given in EP1375483A1, “6-CHLORO-3-PYRIDYLMETHYLPROPYLAMINE DERIVATIVES, PREPARATION PROCESS THEREOF AND BACTERICIDES” (KUREHA KAGAKU KOGYO KABUSHIKI KAISHA, priority 2001, dated 2001).
Where two headings read alike, the source gives them in different places.

Tests used:
[1] = test system: Microdochium nivale; assay: Antifungal activity test against various pathogenic fungi, hypha extension on PDA plates (Test Example 3); type: cell-based; conditions: read-out: Growth Inhibition M.n (3.2)
[2] = test system: Botrytis cinerea; assay: as above; type: cell-based; conditions: read-out: Growth Inhibition B.c (1.6)
[3] = test system: Rhynchosporium secalis; assay: as above; type: cell-based; conditions: read-out: Growth Inhibition R.s (100)
[4] = test system: Septoria tritici; assay: as above; type: cell-based; conditions: Zymoseptoria tritici, read-out: Growth Inhibition S.t (100)
[5] = test system: Pyrenophora graminea; assay: as above; type: cell-based; conditions: read-out: Growth Inhibition P.g (12.5)
[6] = test system: Leptosphaeria nodorum; assay: as above; type: cell-based; conditions: Parastagonospora nodorum, read-out: Growth Inhibition L.n (0.8)
[7] = test system: Venturia inaequalis; assay: as above; type: cell-based; conditions: read-out: Growth Inhibition V.i (3.2)
[8] = test system: Pyricularia oryzae; assay: microbe, parasite or virus in culture; type: cell-based; conditions: read-out: Growth Inhibition P.o (12.5)
[9] = test system: Pseudocercosporella herpotrichoides; assay: Antifungal activity test against various pathogenic fungi, hypha extension on PDA plates (Test Example 3); type: cell-based; conditions: Oculimacula yallundae, read-out: Growth Inhibition P.h (25)
[10] = test system: cucumber powdery mildew; assay: Test of control effect on cucumber powdery mildew (Test Example 2); type: in vivo; conditions: wettable powder 100 mg/l, 100 liters/10 a, sprinkled on cucumbers (Sagamihanpakufushinari) before inoculation, examined 9th to 14th day after inoculation; for pest or weed control at 100 µg/mL: Cucumis sativus
Experimental: The wettable powders formulated by using each of the compounds I-1 to 27 according to the present invention and the comparative compounds (a) to (d), (m-1) and (m-3) were each diluted and suspended with water to a predetermined concentration (100 mg/l), the suspension was sprinkled over the first to the second leaf period cucumbers (variety: "[…]") cultivated by using a square plastic pot (size: 6. 4 cm x 6. 4 cm) in a rate of 100 liters/10 a (ares). After the sprinkled leaves were air-dried, the spores were inoculated over the leaves by sprinkling the same with a brush from an infected leaf, a disease was contracted in a glass house (temperature: 20 to 24°C, relative humidity: 20 to 70 RH). On the 9th to 14th day after the inoculation, the infection degree was examined according to the following scale and the control value of each compound was calculated by the following calculation equation 2: [table] (Equation 2) Control value = (1 - infection degree of treated zone/infection degree of untreated zone) x 100 (%) [formula] The control values of each compound are shown in Table 9.

[11] = test system: wheat powdery mildew; assay: Test of control effect on wheat powdery mildew (Test Example 1); type: in vivo; conditions: wettable powder 125 mg/l, 100 liters/10 a, sprinkled on wheat seedlings (Nourin 64) before inoculation, examined 9th to 14th day after inoculation; for pest or weed control at 125 µg/mL: Triticum aestivum
Experimental: Wettable powders were prepared from compounds of the present invention I-1 to I-27 and comparative compounds (a) to (d) , (m-1) and (m-3). The obtained wettable powder was diluted and suspended with water to provide the predetermined concentration (125 mg/l), and was sprinkled onto seedlings of wheat (variety: "Nourin 64") at the first to the second leaf period which were cultivated using square plastic pots (size: 6.4 cm x 6.4 cm) in a rate of 100 liters/10 a (ares). After drying the sprinkled leaves with air, a suspension of wheat powdery mildew spores taken from infected leaves was inoculated by spraying onto the sprinkled leaves. They were supervised in a green house (temperature: 20 to 24°C, relative humidity: 20 to 70 RH). On the 9th to 14th day after the inoculation, the infection degree was examined according to the following scale and the control value of each compound was calculated by the following calculation equation 1. [table] (Equation 1) Control value = (1 - infection degree of treated zone/infection degree of untreated zone) x 100 (%) [formula] The control values of each compound are shown in Table 8.

[12] = test system: wheat powdery mildew; assay: Permeable mobility fungicidal effect test in leaf section of wheat powdery mildew (Test Example 4); type: in vivo
Experimental: In the test example 4, permeable mobility fungicidal effect test was performedon the leaf section of wheat powdery mildew with regard to the compounds I-1 to 27 according to the present invention and the comparative compounds (a) to (d), and (m-1) to (m-3) with the method described later. The compound in the form of a wettable powder obtained by Formulation 2 or the like was diluted and suspended with water to a predetermined concentration (200mg/l), and 0.5 µl of the suspension was applied to a 2 to 3 cm leaf portion from the root of the three leaves of the 4th to 4.5th leaf period wheat (variety: Abukumawase) cultured by using a square plastic pot (size: 6.4 cm x 6.4 cm). After these wheat leaves were subject to still standing in a glass house (temperature: 20 to 24C, relative humidity: 20 to 70 RH) for one day, the spores of wheat powdery mildew were inoculated over the leaves by sprinkling the same with a brush from an infected leaf, a disease was contracted in the same glass house. The length of a non-contracted area generated from the applied portion to the direction of the leaf top was measured, and a relative mobility to the compound (m-2) was calculated with the following calculation […] by using the comparative compound (m-2) as a standard compound. (Equation 4) Relative mobility = (Length of non-contracted area in each chemical section (cm)/Length of non-contracted area of compound (m-2) (cm)) [formula]

[13] = 3.2 ppm in PDA culture medium, cultured 1 to 7 days
[14] = 1.6 ppm in PDA culture medium, cultured 1 to 7 days
[15] = 100 ppm in PDA culture medium, cultured 1 to 7 days
[16] = Septoria tritici, 100 ppm in PDA culture medium, cultured 1 to 7 days
[17] = 12.5 ppm in PDA culture medium, cultured 1 to 7 days
[18] = Leptosphaeria nodorum, 0.8 ppm in PDA culture medium, cultured 1 to 7 days
[19] = Pseudocercosporella herpotrichoides, 25 ppm in PDA culture medium, cultured 1 to 7 days
[20] = length of non-contracted area relative to compound (m-2), 0.5 µl of 200 mg/l suspension applied to wheat leaf (Abukumawase), inoculated after one day

Row | SMILES | inhibition at 3.2 ppm [1, 13] | inhibition at 1.6 ppm [2, 14] | inhibition at 100 ppm [3, 15] | inhibition at 100 ppm [4, 16] | inhibition at 12.5 ppm [5, 17] | inhibition at 0.8 ppm [6, 18] | inhibition at 3.2 ppm [7, 13] | inhibition at 12.5 ppm [8] | inhibition at 25 ppm [9, 19] | pest or weed control at 100 µg/mL [10] | pest or weed control at 125 µg/mL [11] | Relative Mobility [12, 20] | other results
1 | CC(Cc1ccc(OC(F)(F)F)c(F)c1)CN(C)Cc1ccc(Cl)nc1 (stereo not drawn) [Compound I-17, 6-chloro-N-[3-(3-fluoro-4-trifluoromethoxyphenyl)-2-methylpropyl]-N-methyl-3-pyridylmethylamine] | > 90% | > 90% | > 90% | 70 to 90% | 70 to 90% | > 90% | 70 to 90% | 70 to 90% | > 90% | 100% | 100% | 10 | –
2 | CC(Cc1cc(F)c(OC(F)(F)F)c(F)c1)CN(C)Cc1ccc(Cl)nc1 (stereo not drawn) [Compound I-20, 6-chloro-N-[3-(3,5-difluoro-4-trifluoromethoxyphenyl)-2-methylpropyl]-N-methyl-3-pyridylmethylamine] | 70 to 90% | > 90% | 70 to 90% | 70 to 90% | 70 to 90% | > 90% | 70 to 90% | 70 to 90% | > 90% | 100% | 100% | 9 | –
3 | CC(Cc1cc(F)cc(Cl)c1)CN(C)Cc1ccc(Cl)nc1 (stereo not drawn) [Compound I-21, 6-chloro-N-[3-(3-chloro-5-fluorophenyl)-2-methylpropyl] -N-methyl-3-pyridylmethylamine] | 70 to 90% | > 90% | > 90% | 70 to 90% | > 90% | > 90% | 70 to 90% | 70 to 90% | > 90% | 100% | 100% | 9 | –
4 | CC(Cc1ccc2c(c1)OC(F)(F)O2)CN(C)Cc1ccc(Cl)nc1 (stereo not drawn) [Compound I-24] | – | – | – | – | – | – | – | 70 to 90% | – | – | – | – | inhibition at 3.2 ppm [1]: 70 to 90%; inhibition at 1.6 ppm [2]: 70 to 90%; inhibition at 100 ppm [3]: > 90%; inhibition at 100 ppm [4]: 70 to 90%; inhibition at 12.5 ppm [5]: > 90%; inhibition at 0.8 ppm [6]: > 90%; inhibition at 3.2 ppm [7]: 70 to 90%; inhibition at 25 ppm [9]: > 90%; Control Value [10]: 100%; Control Value [11]: 100%; Relative Mobility ([12]; 24 h, 200 ug/mL): 6
